Experimental data as given in patent publication US10202403B2, “Macrocyclic benzofuran compounds for the treatment of hepatitis C” (BRISTOL-MYERS SQUIBB COMPANY, priority 2014, dated 2019).

Tests used:
[1] = tested on: genotype 1b (Con-1) HCV replicon; experiment: HCV replicon luciferase assay; assay type: cell-based, HCV genotype 1b (Con-1) in human Huh-7 cells; conditions: Hepatitis C virus, 72 h; genotype 1b replicon, Huh-7, Renilla luciferase, 3 days incubation
Method: Cell Lines. The cell lines used to evaluate compounds consist of a human hepatocyte derived cell line (Huh-7) that constitutively expresses a genotype 1b (Con-1) HCV replicon or a genotype 1b (Con-1) HCV replicon with an asparagine replacing the cysteine at amino acid 316, or a genotype 2a (JFH-1) replicon, containing a Renilla luciferase reporter gene. These cells were maintained in Dulbecco's modified Eagle medium (DMEM) containing 10% FBS, 100 U/mL penicillin/streptomycin and 1.0 mg/mL G418.
HCV replicon luciferase assay.To evaluate compound efficacy, titrated compounds were transferred to sterile 384-well tissue culture treated plates, and the plates were seeded with HCV replicon cells (50 μL at a density of 2.4×10^3 cells/well) in DMEM containing 4% FBS (final DMSO concentration at 0.5%). After 3 days incubation at 37° C., cells were analyzed for Renilla Luciferase activity using the EnduRen substrate (Promega cat #E6485) according to the manufacturer's directions. Briefly, the EnduRen substrate was diluted in DMEM and then added to the plates to a final concentration of 7.5 μM. The plates were incubated for at least 1 hour at 37° C., then read on a Viewlux Imager (PerkinElmer) using a luminescence program. The 50% effective concentration (EC50) was calculated using the four-parameter logistic formula noted above.

HCV = conditions: cited from earlier work

SMILES	EC50 [1] [µM]	hepatic toxicity (HCV; extended dosing of the combination regimens, development suspended)	HCV RNA levels in patients (HCV; patients, single agent: transient decrease then rebound, more robust drop with interferon and ribavirin)
CNC(=O)c1c(-c2ccc(F)cc2)oc2ccc3c(c12)CCCCCCCO3 [Compound 1008]	1.82		
C=CC1Cc2c(ccc3oc(-c4ccc(F)cc4)c(C(=O)NC)c23)O1 (centres unmarked) [Compound 1002]	0.672		
CNC(=O)c1c(-c2ccc(F)cc2)oc2ccc3c(c12)Cc1cccc(n1)COc1ccc2oc(-c4ccc(F)cc4)c(C(=O)NC)c2c1Cc1cccc(n1)CO3 [Compound 2001]	6.67		
CNC(=O)c1c(-c2ccc(F)cc2)oc2ccc3c(c12)Cc1cccc2cccc(c12)CO3 [Compound 1004]	> 10		
CNC(=O)c1c(-c2ccc(F)cc2)oc2ccc3c(c12)CC1(CC1)COc1ccc2oc(-c4ccc(F)cc4)c(C(=O)NC)c2c1CC1(CC1)CO3 [Compound 2005]	0.931		
CNC(=O)c1c(-c2ccc(F)cc2)oc2ccc3c(c12)CCCCCCCCCCO3 [Compound 1011]	1.08		
CNC(=O)c1c(-c2ccc(F)cc2)oc2ccc3c(c12)Cc1ccccc1-c1ccccc1CO3 [Compound 1003]	2.84		
C=C1COc2ccc3oc(-c4ccc(F)cc4)c(C(=O)NC)c3c2CC(=C)COc2ccc3oc(-c4ccc(F)cc4)c(C(=O)NC)c3c2C1 [Compound 2002]	3.65		
CNC(=O)c1c(-c2ccc(F)cc2)oc2ccc3c(c12)CCCCCCO3 [Compound 1007]	1.29		
CNC(=O)c1c(-c2ccc(F)cc2)oc2ccc3c(c12)CCCCCCCCCO3 [Compound 1010]	1.63		
CNC(=O)c1c(-c2ccc(F)cc2)oc2ccc3c(c12)Cc1cccc(c1)COc1ccc2oc(-c4ccc(F)cc4)c(C(=O)NC)c2c1Cc1cccc(c1)CO3 [Compound 2004]	> 10		
CNC(=O)c1c(-c2ccc(F)cc2)oc2ccc3c(c12)CC=CCO3 [Compound 1001]	2.08		
CNC(=O)c1c(-c2ccc(F)cc2)oc2ccc3c(c12)CCCCCCCCO3 [Compound 1009]	2.08		
CNC(=O)c1c(-c2ccc(F)cc2)oc2ccc3c(c12)CCN(S(=O)(=O)c1ccc(C)cc1)CCO3 [Compound 1014]	> 10		
CNC(=O)c1c(-c2ccc(F)cc2)oc2ccc3c(c12)CCc1cccc(c1)CCO3 [Compound 1005]	> 10		
CNC(=O)c1c(-c2ccc(F)cc2)oc2ccc3c(c12)CCCCCCCCCCCCO3 [Compound 1013]	1.51		
CNC(=O)c1c(-c2ccc(F)cc2)oc2ccc3c(c12)CCOCCOCCO3 [Compound 1006]	> 10		
CNC(=O)c1c(-c2ccc(F)cc2)oc2ccc3c(c12)CCCCCCCCCCCO3 [Compound 1012]	0.53		
CNC(=O)c1c(-c2ccc(F)cc2)oc2cc(N(CCO)S(C)(=O)=O)c(C3CC3)cc12 [HCV-796]		hepatic toxicity observed	reduce HCV RNA levels in patients
